Read-outs that look alike come from different tables or passages of the source. One block for each molecule: values may come before it.
How the values were obtained:
[1] = system: LPS induced IL-6 secretion from whole blood; assay: LPS induced IL-6 secretion from whole blood; assay type: cell-based; conditions: LPS 200 ng/ml, 24 hours, IL-6 immunoassay
Method: Measurement of LPS Induced IL-6 Secretion from Whole Blood
Activation of monocytic cells by agonists of toll-like receptors such as bacterial lipopolysaccharide (LPS) results in production of key inflammatory mediators including IL-6. Such pathways are widely considered to be central to the pathophysiology of a range of auto-immune and inflammatory disorders.
Compounds to be tested are diluted to give a range of appropriate concentrations of which 1 μl of the diluted stocks is added to a 96 well plate. Following addition of whole blood (130 ul) the plates are incubated at 37 degrees (5% CO2) for 30 min before the addition of 10 μl of 2.8 ug/ml LPS, diluted in complete RPMI 1640 (final concentration=200 ng/ml), to give a total volume of 140 μl per well. After further incubation for 24 hours at 37 degrees, 140 μl of PBS are added to each well. The plates are sealed, shaken for 10 minutes and then centrifuged (2500 rpm×10 min). 100 μl of the supernatant are removed and IL-6 levels assayed by immunoassay (typically by MesoScale Discovery technology) either immediately or following storage at −20 degrees. Concentration response curves for each compound was generated from the data and an IC50 value was calculated

[2] = system: Multiple myeloma cell lines; assay: Oncology cell growth assay (384-well, CellTiter-Glo); assay type: cell-based, Human
Method: (§1) Oncology Cell Growth Assay
(§2) Human cell lines (n=80 comprising cell lines described in Table 2 below) were cultured in RPMI-1640 containing 10% fetal bovine serum, 1000 viable cells per well were plated in 384-well black flat bottom polystyrene plates (Greiner #781086) in 48 μl of culture media. All plates were placed at 5% CO2, 37° C. overnight. The following day one plate was harvested with CellTiter-Glo (CTG, Promega #G7573) for a time equal to 0 (T0) measurement and compound (20 point titration from 14.7 uM to 7 pM) was added to the remaining plates. The final concentration of DMSO in all wells was 0.15%. Cells were incubated for 72 hours or the indicated time and each plate was developed with CellTiter-Glo reagent using a volume equivalent to the cell culture volume in the wells. Plates were shaken for approximately 2 minutes and chemiluminescent signal was read on the Analyst GT (Molecular Devices) or EnVision Plate Reader (Perkin Elmer).
(§3) Results are expressed as a percent of the T0 and plotted against the compound concentration. The T0 value was normalized to 100% and represents the number of cells at time of compound addition and the concentration response data were fit with a 4 parameter curve fit using XLfit software (model 205). The concentration that inhibited cell growth by 50% (gIC50) is the midpoint of the ‘growth window’ (between the T0 and DMSO control). The Ymin−T0 value is determined by subtracting the T0 value (100%) from the Ymin value (%) determined from the fit of the concentration response curve. Values from the wells with no cells were subtracted from all samples for background correction.

LPS-induced serum IL-6 = assay: In vivo mouse model to demonstrate modulation of pro-inflammatory response (i.v. LPS); parameters: species or system Male CD1 mice; conditions: for reduced maximum (Cmax) IL-6 levels / reduced total exposures (AUC) of IL-6: 1 h before i.v. LPS 100 μg/kg, mouse
Method: Male CD1 mice (25-30 g, n=4 per group) received a single i.v. bolus injection of LPS (100 μg/kg) via the tail vein 1 h after pre-treatment with a single oral administration of either vehicle (1% (w/v) methylcellulose in sterile water) or the test compound (3, 10 and 30 mg/kg). Serial blood samples were obtained from the tail vein by direct venepuncture at various time points up to 5 h post-LPS administration for analysis of IL-6 and the test compound concentrations by Meso Scale Discovery (MSD) analysis and LC-MS/MS respectively.

Neuroblastoma cell lines = assay: Oncology cell growth assay (384-well, CellTiter-Glo); assay type: cell-based; conditions: Homo sapiens
Method: as §1, §2, §3

[3] = system: Cervical cancer cell lines; assay: as above; assay type: cell-based; conditions: Homo sapiens; range over 4 cervical cancer cell lines; read-out: gIC50
Method: as §1, §2, §3

[4] = system: Small cell lung cancer (SCLC) cell lines; assay: as above; assay type: cell-based; conditions: Homo sapiens
Method: as §1, §2, §3

[5] = system: NUT-midline carcinoma cell lines; assay: as above; assay type: cell-based; conditions: Homo sapiens; range over 2 NUT-midline carcinoma cell lines; read-out: gIC50
Method: as §1, §2, §3

Esophageal cell lines = assay: as above; assay type: cell-based; conditions: Homo sapiens
Method: as §1, §2, §3

[6] = system: Acute monocytic leukemia cell line; assay: Oncology cell growth assay (analogous procedure, 96 well plates); assay type: cell-based; conditions: Homo sapiens, 1 acute monocytic leukemia line, read-out: gIC50
Method: as §2, §3
(§4) The compound of Example 2 was also tested in accordance with an analogous procedure using 96 well plates along with appropriate modifications to volumes and concentrations that would be apparent to those skilled in the art.

[7] = system: Acute promyelocytic leukemia cell line; assay: as above; assay type: cell-based; conditions: Homo sapiens, 1 acute promyelocytic leukemia line, read-out: gIC50
Method: as §2, §3, §4

[8] = system: Burkitt's lymphoma cell lines; assay: as above; assay type: cell-based; conditions: Homo sapiens, Burkitts lymphoma cell, range over 3 Burkitt's lymphoma lines, read-out: gIC50
Method: as §2, §3, §4

[9] = system: Cutaneous T cell lymphoma cell line; assay: as above; assay type: cell-based; conditions: Homo sapiens, 1 cutaneous T cell lymphoma line, read-out: gIC50
Method: as §2, §3, §4

[10] = system: Chronic myeloid leukemia cell line; assay: as above; assay type: cell-based; conditions: Homo sapiens, 1 chronic myeloid leukemia line, read-out: gIC50
Method: as §2, §3, §4

[11] = system: Ovarian carcinoma cell line; assay: as above; assay type: cell-based; conditions: Homo sapiens, 1 ovarian carcinoma line, read-out: gIC50
Method: as §2, §3, §4

[12] = system: Breast cancer (ductal) cell line; assay: as above; assay type: cell-based; conditions: Homo sapiens, 1 breast cancer (ductal) line, read-out: gIC50
Method: as §2, §3, §4

[13] = positive control, maximal reduction observed, mouse LPS model

IC50 [1]: 100 to 1000 nM
SMILES: COCC(C)n1c(C2CCOCC2)nc2cnc3cc(-c4c(C)noc4C)c(OC)cc3c21 (centres unmarked) [Example 1, 4-(8-methoxy-1-(1-methoxypropan-2-yl)-2-(tetrahydro-2H-pyran-4-yl)-1H-imidazo[4,5-c]quinolin-7-yl)-3,5-dimethylisoxazole]

IC50 ([2]; Homo sapiens, median of 16 multiple myeloma cell lines, read-out: gIC50 (median)): 414 nM | IC50 ([2]; Homo sapiens, range over 16 multiple myeloma cell lines, 72 hours, read-out: gIC50): ≥ 1.1 nM | IC50 ([2]; range for 15 out of 16 multiple myeloma cell lines, read-out: gIC50): 1.1 to 2000 nM | IC50 [1]: 100 to 1000 nM | IC50 (Neuroblastoma cell lines; median of 12 neuroblastoma cell lines, read-out: gIC50 (median)): 193 nM | IC50 (Neuroblastoma cell lines; range over 12 neuroblastoma cell lines, read-out: gIC50): 25 to 435 nM | IC50 [3]: 266 to 847 nM | IC50 ([4]; median of 38 SCLC cell lines, read-out: gIC50 (median)): 538 nM | IC50 ([4]; range for 35 of the 38 SCLC cell lines, read-out: gIC50): 76 to 2500 nM | IC50 ([4]; range over 38 SCLC cell lines, 72 hours, read-out: gIC50): ≥ 76 nM | IC50 [5]: 59 to 66 nM | IC50 [6]: 123 nM | IC50 [7]: 141 nM | IC50 [8]: 181 to 807 nM | IC50 [9]: 162 nM | IC50 [10]: 776 nM | IC50 [11]: 707 nM | IC50 [12]: 537 nM
SMILES: COC[C@@H](C)n1c(C2CCOCC2)nc2cnc3cc(-c4c(C)noc4C)c(OC)cc3c21 [Example 2, 4-(8-methoxy-1-((R)-1-methoxypropan-2-yl)-2-(tetrahydro-2H-pyran-4-yl)-1H-imidazo[4,5-c]quinolin-7-yl)-3,5-dimethylisoxazole]
reduced maximum (Cmax) IL-6 levels (LPS-induced serum IL-6; 3 mg/kg single oral): 46% | reduced total exposures (AUC) of IL-6 (LPS-induced serum IL-6; 3 mg/kg single oral): 35% | reduced maximum (Cmax) IL-6 levels (LPS-induced serum IL-6; 10 mg/kg single oral): 79% | reduced total exposures (AUC) of IL-6 (LPS-induced serum IL-6; 10 mg/kg single oral): 70% | reduced maximum (Cmax) IL-6 levels (LPS-induced serum IL-6; 30 mg/kg single oral): 73% | reduced total exposures (AUC) of IL-6 (LPS-induced serum IL-6; 30 mg/kg single oral): 63% | IC50 (Esophageal cell lines; median of 8 esophageal cell lines, read-out: gIC50 (median)): 759 nM | IC50 (Esophageal cell lines; range over 8 esophageal cell lines, read-out: gIC50): 208 to 1540 nM

SMILES: C[C@@H]1C[C@H]2[C@@H]3CCC4=CC(=O)C=C[C@]4(C)[C@@]3(F)[C@@H](O)C[C@]2(C)[C@@]1(O)C(=O)CO [dexamethasone, reference compound]
reduction in IL-6 AUC (LPS-induced serum IL-6; [13]): 70% | reduction in IL-6 Cmax (LPS-induced serum IL-6; [13]): 73%
